Laboratory results published in patent US20080194544A1, “AQUEOUS FORMULATIONS OF EPINASTINE FOR TREATING ALLERGIC RHINITIS” (priority 2007, published 2008).

Details: intranasal 0.05% or 0.1% spray
Description: Each group started with approximately 190 subjects.
The plasma samples from 43 subjects included in this clinical trial were collected for pharamacokinetic analysis following the first dose (Day 1) and the last dose (Day 14). Plasma epinastine levels following intranasal administration were determined.

SMILES: NC1=NCC2c3ccccc3Cc3ccccc3N12 (centres unmarked) [epinastine, 3-amino-9,13b-dihydro-1H-dibenz-[c,-f]imidazol[1,5-a]azepine]
- dose proportionality of plasma epinastine concentrations: generally proportional to the nasal dose administered
- plasma concentrations of epinastine (after first dose (Day 1) and last dose (Day 14), 43 subjects): < 1 ng/mL
